Test results from US11479578B2, “Protein purification and virus inactivation with alkyl glycosides” (priority 2017, dated 2022).
Like-named read-outs stand apart in the source and are kept apart here.

What was measured:
rD′D3-FP = target: T1, rD′D3-FP (Homo sapiens, UniProt P02768+P04275)
T1 construct: made in house; host or cells: CHO cells

[1] = tested on: BVDV (bovine viral diarrhea virus); assay type: cell-based
VACV (Vaccinia virus) = assay type: cell-based
[2] = tested on: MuLV (murine leukemia virus); assay type: cell-based
PRV (pseudorabies virus) = assay type: cell-based
[3] = tested on: VSV (Vesicular Stomatitis Virus); assay type: cell-based

T1 sequence (P04275+P02768 fused): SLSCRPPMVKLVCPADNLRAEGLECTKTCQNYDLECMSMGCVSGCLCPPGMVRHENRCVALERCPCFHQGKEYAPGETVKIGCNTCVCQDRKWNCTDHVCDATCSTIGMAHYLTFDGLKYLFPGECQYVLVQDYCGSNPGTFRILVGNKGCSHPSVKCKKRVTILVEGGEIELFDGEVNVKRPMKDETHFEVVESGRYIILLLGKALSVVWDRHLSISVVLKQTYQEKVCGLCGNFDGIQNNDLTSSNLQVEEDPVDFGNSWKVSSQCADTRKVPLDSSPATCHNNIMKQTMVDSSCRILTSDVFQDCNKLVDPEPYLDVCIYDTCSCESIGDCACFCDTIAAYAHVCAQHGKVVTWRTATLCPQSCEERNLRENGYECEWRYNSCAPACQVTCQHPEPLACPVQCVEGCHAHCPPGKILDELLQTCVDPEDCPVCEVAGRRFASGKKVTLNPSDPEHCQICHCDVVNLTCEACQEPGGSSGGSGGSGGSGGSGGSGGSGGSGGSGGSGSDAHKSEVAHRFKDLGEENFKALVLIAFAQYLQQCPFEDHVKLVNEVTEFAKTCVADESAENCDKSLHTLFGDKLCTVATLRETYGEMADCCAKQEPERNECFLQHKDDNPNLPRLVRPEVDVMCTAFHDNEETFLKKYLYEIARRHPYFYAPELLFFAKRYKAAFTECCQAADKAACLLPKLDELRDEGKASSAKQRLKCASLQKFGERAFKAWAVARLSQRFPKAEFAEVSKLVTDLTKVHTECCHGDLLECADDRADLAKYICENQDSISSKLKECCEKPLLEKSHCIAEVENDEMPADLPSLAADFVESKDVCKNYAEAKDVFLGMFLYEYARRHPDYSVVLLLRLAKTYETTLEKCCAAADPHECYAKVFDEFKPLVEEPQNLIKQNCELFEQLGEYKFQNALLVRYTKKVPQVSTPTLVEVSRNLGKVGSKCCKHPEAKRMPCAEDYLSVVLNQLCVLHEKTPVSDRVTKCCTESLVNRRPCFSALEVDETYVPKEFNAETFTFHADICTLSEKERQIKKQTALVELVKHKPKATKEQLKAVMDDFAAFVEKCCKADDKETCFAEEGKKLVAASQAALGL

CCCCCCCCO[C@@H]1O[C@H](CO)[C@@H](O)[C@H](O)[C@H]1O [OG, n-octyl-beta-D-glucopyranoside]
rD′D3-FP in the eluate fraction (rD′D3-FP): 83% | BVDV virus titre after treatment [1]: ≤1.2 | LRV [1]: ≥5.3 log10 | time to complete BVDV inactivation [1]: ≤ 15 min | VACV inactivation (in words) (VACV (Vaccinia virus)): completely inactivates VACV very fast | VACV virus titre after treatment (VACV (Vaccinia virus)): ≤1.5 | LRV [2]: ≥4.2 log10 | MuLV virus titre after treatment [2]: ≤1.2 | time to complete MuLV inactivation [2]: ≤ 15 min | LRV (PRV (pseudorabies virus)): ≥6.3 log10 | time to complete PRV inactivation (PRV (pseudorabies virus)): 60 min | virus inactivation capacity (in words) (PRV (pseudorabies virus)): effective | PRV Load (PRV (pseudorabies virus); 15 min): ≤1.2 log10 | PRV Load (PRV (pseudorabies virus); 120 min): 6.7 log10 | VSV virus titre after treatment [3]: ≤1.5

CCCCCCCCCCO[C@@H]1O[C@H](CO)[C@@H](O)[C@H](O)[C@H]1O [DG, n-decyl-beta-D-glucopyranoside]
PRV virus titre after treatment (PRV (pseudorabies virus)): ≤2.2 | virus inactivation capacity (in words) (PRV (pseudorabies virus)): effective

CCCCCCCCO[C@@H]1O[C@H](CO)[C@@H](O[C@H]2O[C@H](CO)[C@@H](O)[C@H](O)[C@H]2O)[C@H](O)[C@H]1O [OM, n-octyl-beta-D-maltoside]
virus inactivation capacity (in words) (PRV (pseudorabies virus)): effective

CCCCCCCCCCCCO[C@@H]1O[C@H](CO)[C@@H](O[C@H]2O[C@H](CO)[C@@H](O)[C@H](O)[C@H]2O)[C@H](O)[C@H]1O [DDM, n-dodecyl-beta-D-maltoside]
PRV virus titre after treatment (PRV (pseudorabies virus)): ≤4.2 | virus inactivation capacity (in words) (PRV (pseudorabies virus)): effective

CCCCCCCCCCCCO[C@@H]1O[C@H](CO)[C@@H](O)[C@H](O)[C@H]1O [DDG, n-dodecyl-beta-D-glucopyranoside]
PRV virus titre after treatment (PRV (pseudorabies virus)): ≤2.2 | virus inactivation capacity (in words) (PRV (pseudorabies virus)): effective

CCCCCCCCCCO[C@@H]1O[C@H](CO)[C@@H](O[C@H]2O[C@H](CO)[C@@H](O)[C@H](O)[C@H]2O)[C@H](O)[C@H]1O [DM, n-decyl-beta-D-maltoside]
PRV virus titre after treatment (PRV (pseudorabies virus)): ≤2.2 | virus inactivation capacity (in words) (PRV (pseudorabies virus)): effective
